Laboratory results as given in the supplement of paper PMC10307832.

Experiments:
Experiment in all cases: relative viability (nuclei count vs DMSO), 5 days (fraction); higher = more cells survive
Entinostat + Dasatinib = compound: Nc1ccccc1NC(=O)c1ccc(CNC(=O)OCc2cccnc2)cc1 [Entinostat] + Cc1nc(Nc2ncc(C(=O)Nc3c(C)cccc3Cl)s2)cc(N2CCN(CCO)CC2)n1 [Dasatinib] (partner 0.075 µM)
How it was run: (§1)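 Lung cancer cell lines in 1536-well plates got either a single drug or a fixed anchor-drug dose together with five library-drug doses (not always all listed) in √10 steps, by pin tool, on the day after seeding. Nuclei were counted after 5 days, and relative viability is the treated-to-vehicle ratio of nuclei counts. Values are medians of duplicate plates.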

[1] = compound: C1COCCN1C2=NC(=NC3=C2OC4=C3C=CC=N4)C5=CC(=CC=C5)NC(=O)C6=CN=C(C=C6)N + CS(=O)(=O)CCNCc1ccc(-c2ccc3ncnc(Nc4ccc(OCc5cccc(F)c5)c(Cl)c4)c3c2)o1 [Lapatinib] (partner 2 µM)
How it was run: as §1

[2] = compound: C1COCCN1C2=NC(=NC3=C2OC4=C3C=CC=N4)C5=CC(=CC=C5)NC(=O)C6=CN=C(C=C6)N + CC1(C)CCC(c2ccc(Cl)cc2)=C(CN2CCN(c3ccc(C(=O)NS(=O)(=O)c4ccc(N[C@H](CCN5CCOCC5)CSc5ccccc5)c(S(=O)(=O)C(F)(F)F)c4)cc3)CC2)C1 [Navitoclax] (partner 0.5 µM)
How it was run: as §1

SGI-1776 + Vorinostat = compound: CN1CCC(CNc2ccc3ncc(-c4cccc(OC(F)(F)F)c4)n3n2)CC1 [SGI-1776] + O=C(CCCCCCC(=O)Nc1ccccc1)NO [Vorinostat] (partner 1 µM)
How it was run: as §1

NCI-H838
relative viability (Entinostat + Dasatinib; first compound 0.02 µM): 0.424 | relative viability (Entinostat + Dasatinib; first compound 0.06325 µM): 0.324 | relative viability (Entinostat + Dasatinib; first compound 0.2 µM): 0.455 | relative viability (Entinostat + Dasatinib; first compound 0.6325 µM): 0.469 | relative viability (Entinostat + Dasatinib; first compound 2 µM): 0.258 | relative viability ([1]; first compound 0.02 µM): 0.725 | relative viability ([1]; first compound 0.06325 µM): 1.06 | relative viability ([1]; first compound 0.2 µM): 0.895 | relative viability ([1]; first compound 0.6325 µM): 0.705 | relative viability ([1]; first compound 2 µM): 0.53 | relative viability ([2]; first compound 0.02 µM): 0.92 | relative viability ([2]; first compound 0.06325 µM): 1.14 | relative viability ([2]; first compound 0.2 µM): 1.09 | relative viability ([2]; first compound 0.6325 µM): 0.946 | relative viability ([2]; first compound 2 µM): 0.437 | relative viability (SGI-1776 + Vorinostat; first compound 0.08 µM): 0.794 | relative viability (SGI-1776 + Vorinostat; first compound 0.8 µM): 0.697 | relative viability (SGI-1776 + Vorinostat; first compound 2.53 µM): 0.676 | relative viability (SGI-1776 + Vorinostat; first compound 8 µM): 0.522

NCI-H1355
relative viability (Entinostat + Dasatinib; first compound 0.02 µM): 0.69 | relative viability (Entinostat + Dasatinib; first compound 0.06325 µM): 0.687 | relative viability (Entinostat + Dasatinib; first compound 0.2 µM): 0.583 | relative viability (Entinostat + Dasatinib; first compound 0.6325 µM): 0.429 | relative viability (Entinostat + Dasatinib; first compound 2 µM): 0.306 | relative viability ([1]; first compound 0.02 µM): 0.95 | relative viability ([1]; first compound 0.06325 µM): 1.01 | relative viability ([1]; first compound 0.2 µM): 0.997 | relative viability ([1]; first compound 0.6325 µM): 0.936 | relative viability ([1]; first compound 2 µM): 0.814 | relative viability ([2]; first compound 0.02 µM): 0.924 | relative viability ([2]; first compound 0.06325 µM): 1.08 | relative viability ([2]; first compound 0.2 µM): 0.909 | relative viability ([2]; first compound 0.6325 µM): 0.841 | relative viability ([2]; first compound 2 µM): 0.9 | relative viability (SGI-1776 + Vorinostat; first compound 0.08 µM): 0.692 | relative viability (SGI-1776 + Vorinostat; first compound 0.8 µM): 0.709 | relative viability (SGI-1776 + Vorinostat; first compound 2.53 µM): 0.651 | relative viability (SGI-1776 + Vorinostat; first compound 8 µM): 0.551

NCI-H1395
relative viability (Entinostat + Dasatinib; first compound 0.02 µM): 0.477 | relative viability (Entinostat + Dasatinib; first compound 0.06325 µM): 0.425 | relative viability (Entinostat + Dasatinib; first compound 0.2 µM): 0.42 | relative viability (Entinostat + Dasatinib; first compound 0.6325 µM): 0.286 | relative viability (Entinostat + Dasatinib; first compound 2 µM): 0.405 | relative viability ([1]; first compound 0.02 µM): 0.782 | relative viability ([1]; first compound 0.06325 µM): 1.13 | relative viability ([1]; first compound 0.2 µM): 0.91 | relative viability ([1]; first compound 0.6325 µM): 0.983 | relative viability ([1]; first compound 2 µM): 0.831 | relative viability ([2]; first compound 0.02 µM): 0.919 | relative viability ([2]; first compound 0.06325 µM): 1.07 | relative viability ([2]; first compound 0.2 µM): 1.03 | relative viability ([2]; first compound 0.6325 µM): 1.25 | relative viability ([2]; first compound 2 µM): 1.19 | relative viability (SGI-1776 + Vorinostat; first compound 0.08 µM): 0.887 | relative viability (SGI-1776 + Vorinostat; first compound 0.8 µM): 0.755 | relative viability (SGI-1776 + Vorinostat; first compound 2.53 µM): 0.558 | relative viability (SGI-1776 + Vorinostat; first compound 8 µM): 0.47

NCI-H1437
relative viability (Entinostat + Dasatinib; first compound 0.02 µM): 0.434 | relative viability (Entinostat + Dasatinib; first compound 0.06325 µM): 0.423 | relative viability (Entinostat + Dasatinib; first compound 0.2 µM): 0.188 | relative viability (Entinostat + Dasatinib; first compound 0.6325 µM): 0.137 | relative viability (Entinostat + Dasatinib; first compound 2 µM): 0.126 | relative viability ([1]; first compound 0.02 µM): 0.801 | relative viability ([1]; first compound 0.06325 µM): 0.952 | relative viability ([1]; first compound 0.2 µM): 0.746 | relative viability ([1]; first compound 0.6325 µM): 0.794 | relative viability ([1]; first compound 2 µM): 0.327 | relative viability ([2]; first compound 0.02 µM): 1.15 | relative viability ([2]; first compound 0.06325 µM): 1.16 | relative viability ([2]; first compound 0.2 µM): 1.04 | relative viability ([2]; first compound 0.6325 µM): 1.08 | relative viability ([2]; first compound 2 µM): 0.563 | relative viability (SGI-1776 + Vorinostat; first compound 0.08 µM): 0.84 | relative viability (SGI-1776 + Vorinostat; first compound 0.8 µM): 0.857 | relative viability (SGI-1776 + Vorinostat; first compound 2.53 µM): 0.798 | relative viability (SGI-1776 + Vorinostat; first compound 8 µM): 0.702

NCI-H1650
relative viability (Entinostat + Dasatinib; first compound 0.02 µM): 0.385 | relative viability (Entinostat + Dasatinib; first compound 0.06325 µM): 0.354 | relative viability (Entinostat + Dasatinib; first compound 0.2 µM): 0.407 | relative viability (Entinostat + Dasatinib; first compound 0.6325 µM): 0.284 | relative viability (Entinostat + Dasatinib; first compound 2 µM): 0.212 | relative viability ([1]; first compound 0.02 µM): 0.791 | relative viability ([1]; first compound 0.06325 µM): 0.792 | relative viability ([1]; first compound 0.2 µM): 0.7 | relative viability ([1]; first compound 0.6325 µM): 0.775 | relative viability ([1]; first compound 2 µM): 0.613 | relative viability ([2]; first compound 0.02 µM): 1.27 | relative viability ([2]; first compound 0.06325 µM): 1.34 | relative viability ([2]; first compound 0.2 µM): 1.06 | relative viability ([2]; first compound 0.6325 µM): 1.32 | relative viability ([2]; first compound 2 µM): 0.539 | relative viability (SGI-1776 + Vorinostat; first compound 0.08 µM): 0.848 | relative viability (SGI-1776 + Vorinostat; first compound 0.8 µM): 0.621 | relative viability (SGI-1776 + Vorinostat; first compound 2.53 µM): 0.521 | relative viability (SGI-1776 + Vorinostat; first compound 8 µM): 0.423

NCI-H1651
relative viability (Entinostat + Dasatinib; first compound 0.02 µM): 0.447 | relative viability (Entinostat + Dasatinib; first compound 0.06325 µM): 0.527 | relative viability (Entinostat + Dasatinib; first compound 0.2 µM): 0.402 | relative viability (Entinostat + Dasatinib; first compound 0.6325 µM): 0.338 | relative viability (Entinostat + Dasatinib; first compound 2 µM): 0.192 | relative viability ([1]; first compound 0.02 µM): 0.975 | relative viability ([1]; first compound 0.06325 µM): 0.839 | relative viability ([1]; first compound 0.2 µM): 0.786 | relative viability ([1]; first compound 0.6325 µM): 0.84 | relative viability ([1]; first compound 2 µM): 0.614 | relative viability ([2]; first compound 0.02 µM): 1.33 | relative viability ([2]; first compound 0.06325 µM): 1.18 | relative viability ([2]; first compound 0.2 µM): 0.984 | relative viability ([2]; first compound 0.6325 µM): 1.15 | relative viability ([2]; first compound 2 µM): 0.614 | relative viability (SGI-1776 + Vorinostat; first compound 0.08 µM): 0.605 | relative viability (SGI-1776 + Vorinostat; first compound 0.8 µM): 0.648 | relative viability (SGI-1776 + Vorinostat; first compound 2.53 µM): 0.563 | relative viability (SGI-1776 + Vorinostat; first compound 8 µM): 0.416

NCI-H1666
relative viability (Entinostat + Dasatinib; first compound 0.02 µM): 0.751 | relative viability (Entinostat + Dasatinib; first compound 0.06325 µM): 0.781 | relative viability (Entinostat + Dasatinib; first compound 0.2 µM): 0.833 | relative viability (Entinostat + Dasatinib; first compound 0.6325 µM): 0.595 | relative viability (Entinostat + Dasatinib; first compound 2 µM): 0.455 | relative viability ([1]; first compound 0.02 µM): 0.708 | relative viability ([1]; first compound 0.06325 µM): 0.598 | relative viability ([1]; first compound 0.2 µM): 0.56 | relative viability ([1]; first compound 0.6325 µM): 0.648 | relative viability ([1]; first compound 2 µM): 0.434 | relative viability ([2]; first compound 0.02 µM): 0.856 | relative viability ([2]; first compound 0.06325 µM): 0.96 | relative viability ([2]; first compound 0.2 µM): 0.722 | relative viability ([2]; first compound 0.6325 µM): 0.687 | relative viability ([2]; first compound 2 µM): 0.573 | relative viability (SGI-1776 + Vorinostat; first compound 0.08 µM): 0.999 | relative viability (SGI-1776 + Vorinostat; first compound 0.8 µM): 0.971 | relative viability (SGI-1776 + Vorinostat; first compound 2.53 µM): 0.957 | relative viability (SGI-1776 + Vorinostat; first compound 8 µM): 1.01

NCI-H1734
relative viability (Entinostat + Dasatinib; first compound 0.02 µM): 0.486 | relative viability (Entinostat + Dasatinib; first compound 0.06325 µM): 0.585 | relative viability (Entinostat + Dasatinib; first compound 0.2 µM): 0.578 | relative viability (Entinostat + Dasatinib; first compound 0.6325 µM): 0.476 | relative viability (Entinostat + Dasatinib; first compound 2 µM): 0.403 | relative viability ([1]; first compound 0.02 µM): 1.18 | relative viability ([1]; first compound 0.06325 µM): 1.09 | relative viability ([1]; first compound 0.2 µM): 0.935 | relative viability ([1]; first compound 0.6325 µM): 0.902 | relative viability ([1]; first compound 2 µM): 0.558 | relative viability ([2]; first compound 0.02 µM): 0.838 | relative viability ([2]; first compound 0.06325 µM): 0.99 | relative viability ([2]; first compound 0.2 µM): 0.87 | relative viability ([2]; first compound 0.6325 µM): 0.821 | relative viability ([2]; first compound 2 µM): 0.441 | relative viability (SGI-1776 + Vorinostat; first compound 0.08 µM): 0.809 | relative viability (SGI-1776 + Vorinostat; first compound 0.8 µM): 0.913 | relative viability (SGI-1776 + Vorinostat; first compound 2.53 µM): 0.801 | relative viability (SGI-1776 + Vorinostat; first compound 8 µM): 0.662
